Assay results as given in patent US10167262B2, “Herbicidal substituted 3-arylpyrazoles” (FMC CORPORATION, priority 2014, dated 2019).

Legend:
Assay in all cases: Test E pre-/postemergence greenhouse test, plant response rating 0-100
Format in all cases: in vivo
Details in all cases: Postemergence, scale 0 to 100
[1] = system: Brazilian crabgrass (Digitaria horizontalis)
Source text: (§1) Seeds of plant species selected from corn (Zea mays), soybean (Glycine max), velvetleaf (Abutilon theophrasti), lambsquarters (Chenopodium album), wild poinsettia (Euphorbia heterophylla), palmer pigweed (Amaranthus palmeri), waterhemp (common waterhemp, Amaranthus rudis), surinam grass (Brachiaria decumbens), large (Lg) crabgrass (Digitaria sanguinalis), Brazilian crabgrass (Digitaria horizontalis), fall panicum (Panicum dichotomiflorum), giant foxtail (Setaria faberii), green foxtail (Setaria viridis), goosegrass (Eleusine indica), johnsongrass (Sorghum halepense), ragweed (common ragweed, Ambrosia elatior), barnyardgrass (Echinochloa crus-galli), sandbur (southern sandbur, Cenchrus echinatus), arrowleaf sida (Sida rhombifolia), Italian ryegrass (Lolium multiflorum), dayflower (Virginia (VA) dayflower, Commelina virginica), field bindweed (Convolvulus arvensis), morningglory (Ipomoea coccinea), nightshade (eastern black nightshade, Solanum ptycanthum), kochia (Kochia scoparia), yellow nutsedge (Cyperus esculentus), smartweed (ladysthumb smartweed, Polygonum persicaria), cocklebur (common cocklebur, Xanthium strumarium), and hairy beggarticks (Bidens pilosa), were planted into a silt loam soil and treated preemergence with test chemicals formulated in a non-phytotoxic solvent mixture which included a surfactant.
(§2) At the same time, plants from these crop and weed species and also waterhemp_RES1, (ALS & Triazine resistant common waterhemp, Amaranthus rudis), and waterhemp_RES2, (ALS & HPPD resistant common waterhemp, Amaranthus rudis) were planted in pots containing Redi-Earth® planting medium (Scotts Company, 14111 Scottslawn Road, Marysville, Ohio 43041) comprising spaghnum peat moss, vermiculite, wetting agent and starter nutrients were treated with postemergence applications of test chemicals formulated in the same manner. Plants ranged in height from 2 to 18 cm for postemergence treatments (1- to 4-leaf stage).
(§3) Treated plants and controls were maintained in a greenhouse for 14 to 21 days, after which time all species were compared to controls and visually evaluated. Plant response ratings, summarized in Table E, are based on a scale of 0 to 100 where 0 is no effect and 100 is complete control. A dash (-) response means no test result.

[2] = system: arrowleaf sida (Sida rhombifolia)
Source text: as §1, §2, §3

corn (Zea mays) = system: corn (Zea mays)
Source text: as §1, §2, §3

[3] = system: dayflower (Virginia (VA) dayflower, Commelina virginica)
Source text: as §1, §2, §3

[4] = system: fall panicum (Panicum dichotomiflorum)
Source text: as §1, §2, §3

[5] = system: field bindweed (Convolvulus arvensis)
Source text: as §1, §2, §3

[6] = system: palmer pigweed (Amaranthus palmeri)
Source text: as §1, §2, §3

[7] = system: sandbur (southern sandbur, Cenchrus echinatus)
Source text: as §1, §2, §3

soybean (Glycine max) = system: soybean (Glycine max)
Source text: as §1, §2, §3

[8] = system: waterhemp (common waterhemp, Amaranthus rudis)
Source text: as §1, §2, §3

[9] = system: wild poinsettia (Euphorbia heterophylla)
Source text: as §1, §2, §3

## C=CCn1cc(C(=O)c2ccccc2)c(-c2cc(Cl)cc(Cl)c2)n1 [Compound 60]
[1]; 16 g ai/ha
  Plant response rating, Crabgrass, Brazil: 0
[1]; 31 g ai/ha
  Plant response rating, Crabgrass, Brazil: 0
[1]; 62 g ai/ha
  Plant response rating, Crabgrass, Brazil: 0
[1]; 125 g ai/ha
  Plant response rating, Crabgrass, Brazil: 0
[1]; 250 g ai/ha
  Plant response rating, Crabgrass, Brazil: 0
[2]; 16 g ai/ha
  Plant response rating, Arrowleaf Sida: 25
[2]; 31 g ai/ha
  Plant response rating, Arrowleaf Sida: 35
[2]; 62 g ai/ha
  Plant response rating, Arrowleaf Sida: 35
[2]; 125 g ai/ha
  Plant response rating, Arrowleaf Sida: 45
[2]; 250 g ai/ha
  Plant response rating, Arrowleaf Sida: 45
Corn (Zea mays); 16 g ai/ha
  Plant response rating, Corn: 0
Corn (Zea mays); 31 g ai/ha
  Plant response rating, Corn: 0
Corn (Zea mays); 62 g ai/ha
  Plant response rating, Corn: 0
Corn (Zea mays); 125 g ai/ha
  Plant response rating, Corn: 0
Corn (Zea mays); 250 g ai/ha
  Plant response rating, Corn: 0
[3]; 16 g ai/ha
  Plant response rating, Dayflower, VA: 0
[3]; 31 g ai/ha
  Plant response rating, Dayflower, VA: 0
[3]; 62 g ai/ha
  Plant response rating, Dayflower, VA: 0
[3]; 125 g ai/ha
  Plant response rating, Dayflower, VA: 0
[3]; 250 g ai/ha
  Plant response rating, Dayflower, VA: 0
[4]; 31 g ai/ha
  Plant response rating, Panicum, Fall: 0
[4]; 62 g ai/ha
  Plant response rating, Panicum, Fall: 0
[4]; 125 g ai/ha
  Plant response rating, Panicum, Fall: 0
[4]; 250 g ai/ha
  Plant response rating, Panicum, Fall: 0
[5]; 16 g ai/ha
  Plant response rating, Field Bindweed: 0
[5]; 31 g ai/ha
  Plant response rating, Field Bindweed: 0
[5]; 62 g ai/ha
  Plant response rating, Field Bindweed: 0
[5]; 125 g ai/ha
  Plant response rating, Field Bindweed: 0
[5]; 250 g ai/ha
  Plant response rating, Field Bindweed: 0
[6]; 62 g ai/ha
  Plant response rating, Pigweed, Palmer: 30
[6]; 125 g ai/ha
  Plant response rating, Pigweed, Palmer: 35
[6]; 250 g ai/ha
  Plant response rating, Pigweed, Palmer: 35
[7]; 31 g ai/ha
  Plant response rating, Sandbur: 0
[7]; 62 g ai/ha
  Plant response rating, Sandbur: 0
[7]; 125 g ai/ha
  Plant response rating, Sandbur: 0
[7]; 250 g ai/ha
  Plant response rating, Sandbur: 0
Soybean (Glycine max); 31 g ai/ha
  Plant response rating, Soybean: 0
Soybean (Glycine max); 62 g ai/ha
  Plant response rating, Soybean: 0
Soybean (Glycine max); 125 g ai/ha
  Plant response rating, Soybean: 0
Soybean (Glycine max); 250 g ai/ha
  Plant response rating, Soybean: 0
[8]; 31 g ai/ha
  Plant response rating, Waterhemp: 20
[8]; 62 g ai/ha
  Plant response rating, Waterhemp: 25
[8]; 125 g ai/ha
  Plant response rating, Waterhemp: 25
[8]; 250 g ai/ha
  Plant response rating, Waterhemp: 30
[9]; 31 g ai/ha
  Plant response rating, Poinsettia, Wild: 0
[9]; 62 g ai/ha
  Plant response rating, Poinsettia, Wild: 0
[9]; 125 g ai/ha
  Plant response rating, Poinsettia, Wild: 0
[9]; 250 g ai/ha
  Plant response rating, Poinsettia, Wild: 0
